Key:
Assay in all cases: relative viability (nuclei count vs DMSO), 5 days (fraction); higher = more cells survive
A-427 = test system: A-427
Procedure, shortened: (§1)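 Relative viability was taken as the ratio of nuclei in treated wells to nuclei in vehicle wells. Lung cancer cell lines in 1536-well plates received compounds by pin tool one day after seeding, either one drug alone or a fixed anchor-drug dose plus five library-drug doses (not always all listed) in √10 steps. Nuclei were counted on 4× images after 5 days of treatment, and values are medians of duplicate plates.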

NCI-H1651 = test system: NCI-H1651
Procedure, shortened: as §1

NCI-H1755 = test system: NCI-H1755
Procedure, shortened: as §1

LK-2 = test system: LK-2
Procedure, shortened: as §1

A549 = test system: A549
Procedure, shortened: as §1

NCI-H1299 = test system: NCI-H1299
Procedure, shortened: as §1

EBC-1 = test system: EBC-1
Procedure, shortened: as §1

CAL-12T = test system: CAL-12T
Procedure, shortened: as §1

Calu-6 = test system: Calu-6
Procedure, shortened: as §1

NCI-H1703 = test system: NCI-H1703
Procedure, shortened: as §1

IA-LM = test system: IA-LM
Procedure, shortened: as §1

Cc1cn(-c2cc(NC(=O)c3ccc(C)c(Nc4nccc(-c5cccnc5)n4)c3)cc(C(F)(F)F)c2)cn1 [Nilotinib] + C[C@]1(O)C[C@@H](c2nc(-c3ccc4ccc(-c5ccccc5)nc4c3)c3c(N)nccn32)C1 [Linsitinib] (partner 1 µM)
relative viability (A-427; first compound 0.001 µM): 1.13 | relative viability (A-427; first compound 0.01 µM): 1.26 | relative viability (A-427; first compound 0.03162 µM): 1.16 | relative viability (A-427; first compound 0.1 µM): 1.01 | relative viability (NCI-H1651; first compound 0.001 µM): 1.08 | relative viability (NCI-H1651; first compound 0.003162 µM): 1.42 | relative viability (NCI-H1651; first compound 0.01 µM): 1.32 | relative viability (NCI-H1651; first compound 0.03162 µM): 0.879 | relative viability (NCI-H1651; first compound 0.1 µM): 1.06 | relative viability (NCI-H1755; first compound 0.001 µM): 1.02 | relative viability (NCI-H1755; first compound 0.003162 µM): 1.15 | relative viability (NCI-H1755; first compound 0.01 µM): 1.12 | relative viability (NCI-H1755; first compound 0.03162 µM): 1.07 | relative viability (NCI-H1755; first compound 0.1 µM): 0.894 | relative viability (LK-2; first compound 0.001 µM): 0.517 | relative viability (LK-2; first compound 0.003162 µM): 0.515 | relative viability (LK-2; first compound 0.01 µM): 0.442 | relative viability (LK-2; first compound 0.03162 µM): 0.405 | relative viability (LK-2; first compound 0.1 µM): 0.487 | relative viability (A549; first compound 0.001 µM): 0.778 | relative viability (A549; first compound 0.003162 µM): 0.582 | relative viability (A549; first compound 0.01 µM): 0.767 | relative viability (A549; first compound 0.03162 µM): 0.535 | relative viability (A549; first compound 0.1 µM): 0.286 | relative viability (NCI-H1299; first compound 0.001 µM): 0.91 | relative viability (NCI-H1299; first compound 0.003162 µM): 1.1 | relative viability (NCI-H1299; first compound 0.01 µM): 1.28 | relative viability (NCI-H1299; first compound 0.03162 µM): 0.957 | relative viability (NCI-H1299; first compound 0.1 µM): 0.762 | relative viability (EBC-1; first compound 0.001 µM): 0.81 | relative viability (EBC-1; first compound 0.003162 µM): 0.794 | relative viability (EBC-1; first compound 0.01 µM): 1.14 | relative viability (EBC-1; first compound 0.03162 µM): 0.791 | relative viability (EBC-1; first compound 0.1 µM): 0.66 | relative viability (CAL-12T; first compound 0.001 µM): 0.75 | relative viability (CAL-12T; first compound 0.003162 µM): 0.771 | relative viability (CAL-12T; first compound 0.01 µM): 0.946 | relative viability (CAL-12T; first compound 0.03162 µM): 0.714 | relative viability (CAL-12T; first compound 0.1 µM): 0.565 | relative viability (Calu-6; first compound 0.001 µM): 0.819 | relative viability (Calu-6; first compound 0.003162 µM): 1.06 | relative viability (Calu-6; first compound 0.01 µM): 1.06 | relative viability (Calu-6; first compound 0.03162 µM): 0.809 | relative viability (Calu-6; first compound 0.1 µM): 0.828 | relative viability (NCI-H1703; first compound 0.001 µM): 0.637 | relative viability (NCI-H1703; first compound 0.003162 µM): 0.285 | relative viability (NCI-H1703; first compound 0.01 µM): 0.343 | relative viability (NCI-H1703; first compound 0.03162 µM): 0.218 | relative viability (NCI-H1703; first compound 0.1 µM): 0.136 | relative viability (IA-LM; first compound 0.001 µM): 0.382 | relative viability (IA-LM; first compound 0.003162 µM): 0.31 | relative viability (IA-LM; first compound 0.01 µM): 0.634 | relative viability (IA-LM; first compound 0.03162 µM): 0.346 | relative viability (IA-LM; first compound 0.1 µM): 0.216

CN1CCN(CCOc2cc(OC3CCOCC3)c3c(Nc4c(Cl)ccc5c4OCO5)ncnc3c2)CC1 [Saracatinib] + C[C@]1(O)C[C@@H](c2nc(-c3ccc4ccc(-c5ccccc5)nc4c3)c3c(N)nccn32)C1 [Linsitinib] (partner 1 µM)
relative viability (A-427; first compound 0.02 µM): 1.03 | relative viability (A-427; first compound 0.2 µM): 1.08 | relative viability (A-427; first compound 0.6325 µM): 1.12 | relative viability (A-427; first compound 2 µM): 1.11 | relative viability (NCI-H1651; first compound 0.02 µM): 0.944 | relative viability (NCI-H1651; first compound 0.2 µM): 0.661 | relative viability (NCI-H1651; first compound 0.6325 µM): 0.807 | relative viability (NCI-H1651; first compound 2 µM): 0.67 | relative viability (NCI-H1755; first compound 0.02 µM): 1 | relative viability (NCI-H1755; first compound 0.2 µM): 0.707 | relative viability (NCI-H1755; first compound 0.6325 µM): 0.95 | relative viability (NCI-H1755; first compound 2 µM): 0.896 | relative viability (LK-2; first compound 0.02 µM): 0.52 | relative viability (LK-2; first compound 0.2 µM): 0.484 | relative viability (LK-2; first compound 0.6325 µM): 0.375 | relative viability (LK-2; first compound 2 µM): 0.3 | relative viability (A549; first compound 0.02 µM): 0.564 | relative viability (A549; first compound 0.2 µM): 0.566 | relative viability (A549; first compound 0.6325 µM): 0.638 | relative viability (A549; first compound 2 µM): 0.357 | relative viability (NCI-H1299; first compound 0.02 µM): 0.992 | relative viability (NCI-H1299; first compound 0.2 µM): 0.791 | relative viability (NCI-H1299; first compound 0.6325 µM): 0.979 | relative viability (NCI-H1299; first compound 2 µM): 0.655 | relative viability (EBC-1; first compound 0.02 µM): 0.94 | relative viability (EBC-1; first compound 0.2 µM): 0.771 | relative viability (EBC-1; first compound 0.6325 µM): 1.07 | relative viability (EBC-1; first compound 2 µM): 0.982 | relative viability (CAL-12T; first compound 0.02 µM): 0.805 | relative viability (CAL-12T; first compound 0.2 µM): 0.776 | relative viability (CAL-12T; first compound 0.6325 µM): 0.863 | relative viability (CAL-12T; first compound 2 µM): 1.03 | relative viability (Calu-6; first compound 0.02 µM): 0.95 | relative viability (Calu-6; first compound 0.2 µM): 0.824 | relative viability (Calu-6; first compound 0.6325 µM): 0.906 | relative viability (Calu-6; first compound 2 µM): 0.68 | relative viability (NCI-H1703; first compound 0.02 µM): 1.02 | relative viability (NCI-H1703; first compound 0.2 µM): 0.738 | relative viability (NCI-H1703; first compound 0.6325 µM): 0.513 | relative viability (NCI-H1703; first compound 2 µM): 0.35 | relative viability (IA-LM; first compound 0.02 µM): 0.682 | relative viability (IA-LM; first compound 0.2 µM): 0.838 | relative viability (IA-LM; first compound 0.6325 µM): 1.43 | relative viability (IA-LM; first compound 2 µM): 0.815

— the supplement of paper PMC10307832
